What was measured:
Type in all cases: cell-based, human
Hic-5 = test: Western blot of Hic-5 expression, NADF; conditions: TGF-β1 10 ng/ml
Procedure: (§1) NADF and HTSF lysates were analyzed for protein expression by western blotting with the following primary antibodies at a concentration of 1:1000: cyclin D1, (BD-Biosciences; DCS-6, San Jose, Calif.), cyclin A, (Santa Cruz Biotech.; H 432, Santa Cruz, Calif.), p21^cip1 (BD-Biosciences; sx-118, San Jose, Calif.), p15^ink4b (Cell Signaling, Danvers, Mass.), Hic-5 (BD Transduction, Franklin Lakes, N.J.), RhoGDI (Santa Cruz Biotech, Santa Cruz, Calif.), H2A (Cell Signaling, Danvers, Mass.) and ERK½ (Santa Cruz Biotech, Santa Cruz, Calif.), Vinculin (Sigma Aldrich), SMCA (Sigma Aldrich), FN (Neomarkers), Collagen type I (Sigma Aldrich), Paxillin (Sigma Aldrich). Western blots were developed using SuperSignal chemiluminescent substrate (Pierce, Rockford, Ill.) and quantitated with a Fluor-S MultiImager and Quantity-One software (Bio-Rad, Hercules, Calif.). Membranes were stripped using Restore Stripping (Pierce, Rockford, Ill.) and reprobed (no more than once) with other antibodies.
Either NADF (5×10^3 cells) or HTSF (5×10^3 cells) were cultured in DMEM plus serum for 24 hrs with either TGF-β1 (10 ng/ml) or anti-TGF-β1 (20 μg/ml) where indicated. […] Protein expression was analyzed by western blot, as described above. […]

[1] = system: supermature focal adhesions in NADF; test: Focal adhesion measurements, NADF; conditions: TGF-β1 10 ng/ml for 5 days
Procedure: Cells were stained as previously described (Dabiri et al., 2006), with slight modification. Control or modified cells were cultured at 30% confluency in complete medium for 18 hours, then washed with Dulbecco's phosphate-buffered saline and serum-free medium was added, followed by 10 ng/ml of TGF-β1 or 20 ng/ml of anti-TGF-β1 (R&D Systems, Minneapolis, Minn.) where specified. Cells were allowed to incubate for 5 days. On the fifth day, cells were washed fixed, permeabilized, and blocked for 1 hour. Samples were then incubated sequentially with mAb against vinculin (1:400) (Sigma Chemical Co., St Louis, Mo.), and then with a mixture of goat anti-mouse Alexa Fluor 488 (1:1000) and TRITC-conjugated phalloidin (1:100). […] Images were captured with attached Cooke Sensicam digital camera and deconvolved using Slidebook 3.0.10.3 software (FFTW licensed from Massachusetts Institute of Technology, Cambridge, Mass.).
Focal adhesion measurements were performed as described previously (Dabiri et al., 2006). In brief, cells (n=20) were chosen that were not in contact with any other cell and were well spread. Images were observed using Olympus BX60 microscope equipped with an immersion oil objective (×60/1.25, phase) and captured as described above. Vinculin staining was measured for area (μm^2) of focal adhesion using Image Pro-Plus version 4.5.1.26 (Media Cybermatic, Silver Spring, Md.). […]

SMCA in NADF = test: SMCA expression (western blot, immunostaining), NADF; conditions: TGF-β1 10 ng/ml
Procedure: as §1
(§2) Cells were stained as previously described (Dabiri et al., 2006), with slight modification. Control or modified cells were cultured at 30% confluency in complete medium for 18 hours, then washed with Dulbecco's phosphate-buffered saline and serum-free medium was added, followed by 10 ng/ml of TGF-β1 or 20 ng/ml of anti-TGF-β1 (R&D Systems, Minneapolis, Minn.) where specified. […]

SMCA in HTSF = test: SMCA expression (western blot, immunostaining), HTSF; conditions: TGF-β1 10 ng/ml, 5 days
Procedure: as §1, §2

HTSF [2] = test: CyQUANT cell growth, HTSF; conditions: serum-containing media; anti-TGF-β 20 μg/ml or TGF-β1 10 ng/ml
Procedure: (§3) All cells used in these studies were cultured (37° C., 5% CO2.) in serum-containing media which consisted of Dulbecco's modification of Eagle's Minimum Essential Medium, 10% fetal bovine serum and 1% penicillin-streptomycin (all of which were obtained from Gibco Invitrogen Corporation, Carlsbad, Calif.). NADF were purchased from Clonetics-Cambrex BioScience (Walkersville, Md.). HTSF were isolated from biopsies taken from hypertrophic scars resected therapeutically from pediatric patients at Shriner's Burn Hospital and Massachusetts General Hospital, (Boston, Mass.). Tissue was processed according to the protocol of Ronnov-Jessen and Peterson (1993) and as described in (Dabiri et al., 2006). All tissues were acquired anonymously under protocols approved by the relevant medical and ethical committees of the Shriner's Burn Center in accordance with the Declaration of Helsinki Principles and patients gave their written, informed consent.
(§4) Cell growth was measured using CyQUANT® Cell Proliferation Assay Kit (C-7026, Invitrogen, Carlsbad, Calif.). […] Plates were read on Spectra Max Gemini-EM (Molecular Devices, Sunnyvale, Calif.) with an excitation and emission spectrum 480 nm and 520 nm, respectively.

HTSF [3] = test: Floating collagen lattice contraction, HTSF; conditions: TGF-β1 10 ng/ml added to Hic-5 siRNA treated HTSF
Procedure: (§5) Before preparing the gels, 5 ml of BSA (Sigma) solution (0.1% BSA in PBS, filter sterilized) was pipetted into each well of a six-well plate, incubated at 37° C. for 1 hour. 1.4 ml of bovine dermal collagen Vitrogen (Cohesion, Palo Alto, Calif.) was mixed with 0.4 ml of 5×DMEM in a 15 ml centrifuge tube cooled on ice. The pH was adjusted to a range of 7.2-7.5, using a sterile solution of 1N NaOH. The control and modified cells were trypsinized from a confluent tissue culture plate and 0.2 ml of the cell suspension (containing 5×10^5 cells) was added to the collagen solution, gently mixed and poured into a well of the six-well plate. Collagen lattices were allowed to gel for 60 minutes in a 5% CO2 atmosphere at 37° C. After 60 minutes, the collagen lattices were detached from the surface of the well by rimming the lattice with a sterile spatula and gently swirling the six-well plate. 2 ml of serum-free medium was added to each well. Plates were incubated in a 5% CO2 atmosphere at 37° C. To measure contraction, the tissue culture dishes were periodically placed on top of a transparent metric ruler on an opaque background, and the diameters of the lattices were recorded.

NADF [4] = test: CyQUANT cell growth, NADF; conditions: serum-containing media; anti-TGF-β 20 μg/ml or TGF-β1 10 ng/ml
Procedure: as §3, §4

[5] = system: collagen type I and FN in NADF; test: Western blot of ECM proteins, NADF; conditions: TGF-β1 10 ng/ml, 5 days
Procedure: as §1

NADF [6] = test: Floating collagen lattice contraction, NADF; conditions: TGF-β1 10 ng/ml; floating collagen lattice three days
Procedure: as §5

NADF [7] = test: BrdU incorporation, NADF; conditions: 24 h BrdU pulse; TGF-β1 10 ng/ml
Procedure: HTSF (5×10^3 cells) or NADF (5×10^3 cells) were plated in serum free media (Dulbecco's […] 1:1, Hams F12 1:1, transferrin 5 μg/ml, insulin 5×10^−7M, ascorbate 0.2 mM, glutamine 1:100, penicillin-streptomycin 1:100) for 18 hrs in Labtek™ chambers (Nalge Nunc International, Naperville, Ill.) at 37° C. Cells were washed three times with Dulbecco's phosphate buffered saline (DPBS) (Gibco Invitrogen International, Carlsbad, Calif.) and to each well DMEM containing serum was added, 10 μg/ml of BrdU (Biodesign International, Saco, Me.), with or without the addition of 10 ng/ml of TGFβ1. In some wells anti-TGF-β (20 μg/ml) was also added as indicated. Cells were incubated (24 hrs), washed with DPBS, fixed with 3.7% formaldehyde (Sigma Chemical Co., St. Louis, Mo.) in DPBS (10 min), permeabilized with 0.5% Triton X-100 (5 min) (Sigma Chemical Co., St. Louis, Mo.), blocked (1 hr) with 2% bovine serum albumin (Sigma Chemical Co., St. Louis, Mo.) in PBS then DNAase (Promega, Madison, Wis.) treated for 30 min. […] Coverslips were mounted in Gelmount (Biomedia Corp., Biomedia Corp., Foster City, Calif.) and slides were analyzed on an Olympus BX60 microscope using 10× objective. […] The percent positive BrdU incorporation was determined by dividing the number of nuclei labeled with both BrdU (green) and Hoescht (blue) by the total number of nuclei (blue)×100.

[8] = system: cyclin A, cyclin D1, p21^cip1, p15^ink4b in NADF; test: Western blot of cell cycle proteins, NADF
Procedure: as §1

## TGF-β1: recombinant, active TGF-β1 added exogenously (R&D Systems)
Hic-5; 24 h
  expression of Hic-5 in NADF: significantly increased the expression of Hic-5
Hic-5; subcellular fractionation
  expression of Hic-5 in the nucleus in NADF: significantly increased the expression of Hic-5 in the nucleus
[1]
  increase in the percentage of focal adhesions greater than 6 μm^2 in NADF: ~10 fold
SMCA in NADF; 5 days
  increase in percent positive SMCA cells in NADF: 7 fold
SMCA in NADF; serum free media five days
  expression of SMCA and Hic-5 in NADF: both SMCA and Hic-5 were upregulated
SMCA in HTSF
  increase in the percentage of positive SMCA cells in HTSF in which Hic-5 was genetically ablated: 5 fold
HTSF [2]
  HTSF proliferation (increase in cell number by day 3): did not significantly alter the growth
HTSF [3]
  ability of Hic-5 knocked-down HTSF to contract collagen: fully rescued the ability of HTSF to contract collagen
NADF [4]
  NADF proliferation (increase in cell number by day 3): statistically significant decrease in proliferation
[5]
  expression of collagen and FN in NADF: significantly increased the expression of these ECM proteins
NADF [6]
  decrease in collagen diameter by NADF: 3 fold
NADF [7]
  percent BrdU positive nuclei in NADF: statistically significant decrease in the percent positive nuclei
[8]; 24 h, TGF-β1 10 ng/ml
  cyclin A and cyclin D1 levels in NADF: decreased cyclin A and cyclin D1 levels
  increase in p15^ink4b level in NADF compared to NADF without TGF-β1: 5.25 fold
  increase in p21^cip1 level in NADF compared to NADF without TGF-β1: 2.5 fold
[8]; siRNA experiment, TGF-β1 10 ng/ml for 24 hrs, unaffected by knockdown of Hic-5
  increase in expression of p15^ink4b in NADF: 4 fold

— patent US8420614B2, “Compositions and methods for inhibiting or reversing fibrotic disorders” (Albany Medical College, priority 2007, dated 2013)
